Laboratory results taken from ChEMBL document CHEMBL5528043, “Development of Potent Mcl-1 Inhibitors: Structural Investigations on Macrocycles Originating from a DNA-Encoded Chemical Library Screen” (J Med Chem, 2024).
In brackets after ≈: the same amount, converted by molar mass.

How the values were obtained:
[1] = molecular target: Induced myeloid leukemia cell differentiation protein Mcl-1 (Homo sapiens, UniProt Q07820); experiment: Inhibition of Mcl-1 (172-327) (unknown origin) using BIOTIN-AHXGQVGRQLAIIGDDINR-amide peptide by TR-FRET based BAK peptide displacement assay
Sequence of Induced myeloid leukemia cell differentiation protein Mcl-1 (Q07820 whole entry): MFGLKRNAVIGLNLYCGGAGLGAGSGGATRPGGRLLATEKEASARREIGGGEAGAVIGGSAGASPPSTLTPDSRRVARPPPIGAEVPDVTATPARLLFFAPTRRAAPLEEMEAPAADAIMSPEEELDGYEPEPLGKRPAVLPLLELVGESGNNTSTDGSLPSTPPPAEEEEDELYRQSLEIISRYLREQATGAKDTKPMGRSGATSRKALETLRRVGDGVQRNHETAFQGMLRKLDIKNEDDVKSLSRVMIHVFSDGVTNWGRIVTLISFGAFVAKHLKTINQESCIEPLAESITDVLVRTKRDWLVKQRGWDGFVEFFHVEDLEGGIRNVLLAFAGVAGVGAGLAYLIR

[2] = tested on: NCI-H929; experiment: Cytotoxicity against human NCI-H929 cells assessed as cell viability measured after 72 hrs incubation by CellTiterGlo assay; assay type: functional, cell-based; settings: NCI-H929, 72 h
[3] = Kinetic solubility of the compound in pH 7.4 buffer measured after 24 hrs by LC-UV analysis; assay type: physicochemical; settings: read-out: Kinetic_solubility
[4] = tested on: NCI-H929; experiment: Cytotoxicity against human NCI-H929 cells assessed as […] by measuring caspase 3/7 activity measured after 6 hrs by luminescence assay; assay type: functional, cell-based; settings: NCI-H929, 6 h

Row | SMILES | IC50 [1] [nM] | IC50 [2] [nM] | solubility kinetic at 24 h [3] [µM] | IC50 [4] [nM]
1 | CC(C)C[C@@H]1NC(=O)C[C@H]2CC[C@H](CC2)NC(=O)COc2c(Cl)cccc2COc2ccc(cc2)CCNC(=O)[C@@H](Cc2ccccc2)NC1=O | 253 | – | – | –
2 | CCOc1cccc2c1OCC(=O)N[C@H]1CC[C@H](CC1)CC(=O)N(C)[C@@H](c1ccccc1)C(=O)N[C@H](Cc1ccccc1)C(=O)NCCc1ccc(cc1)OC2 | > 30000 | – | – | –
3 | CCOc1cccc2c1OC(C)(C)C(=O)N[C@H]1CC[C@H](CC1)CC(=O)N[C@@H](c1ccccc1)C(=O)N[C@H](Cc1ccccc1)C(=O)NCCc1ccc(cc1)OC2 | 59 | – | – | –
4 | O=C1C[C@H]2CC[C@H](CC2)NC(=O)COc2c(Cl)cccc2COc2ccc(cc2)CCNC(=O)[C@@H](Cc2ccccc2)NC(=O)[C@H](c2ccccc2)N1 | 78 | – | – | –
5 | CCOc1cccc2c1OCC(=O)N[C@H]1CC[C@H](CC1)CC(=O)N[C@@H](c1ccccc1)C(=O)N(Cc1ccccc1)CC(=O)NCCc1ccc(cc1)OC2 | 234 | – | – | –
6 | CCOc1cc(-c2ccc(C(F)(F)F)cc2)cc2c1OCC(=O)N[C@H]1CC[C@H](CC1)CC(=O)N[C@@H](c1ccccc1)C(=O)N[C@H](Cc1ccccc1)C(=O)NCCc1ccc(cc1)OC2 | 39000 | 7100 | – | –
7 | CCOc1cccc2c1OCC(=O)N[C@H]1CC[C@H](CC1)CC(=O)N[C@@H](CC(C)C)C(=O)N[C@H](CC1CCCCC1)C(=O)N[C@H](C(=O)NC)Cc1ccc(cc1)OC2 | 98 | – | – | –
8 | CCOc1cc(C#Cc2cc(F)cc(F)c2)cc2c1OCC(=O)N[C@H]1CC[C@H](CC1)CC(=O)N[C@@H](c1ccccc1)C(=O)N[C@H](Cc1ccccc1)C(=O)NCCc1ccc(cc1)OC2 | 5600 | 3300 | – | –
9 | CCOc1cc(Oc2cccc3ccccc23)cc2c1OCC(=O)N[C@H]1CC[C@H](CC1)CC(=O)N[C@@H](c1ccccc1)C(=O)N[C@H](Cc1ccccc1)C(=O)NCCc1ccc(cc1)OC2 | 12000 | 170 | – | –
10 | CCOc1cccc2c1OCC(=O)N[C@H]1CC[C@H](CC1)CC(=O)N[C@@H](CCSC)C(=O)N[C@H](Cc1ccccc1)C(=O)NCCc1ccc(cc1)OC2 | 212 | – | 9 (≈ 6.7 µg/mL) | –
11 | CCOc1cccc2c1OCC(=O)N[C@H]1CC[C@H](CC1)CC(=O)N[C@@H](c1ccnc(OC)c1)C(=O)N[C@H](Cc1ccccc1)C(=O)NCCc1ccc(cc1)OC2 | 34 | – | 3 (≈ 2.33 µg/mL) | –
12 | CCOc1cccc2c1OCC(=O)N[C@H]1CC[C@H](CC1)CC(=O)N[C@@H](c1ccccc1)C(=O)N[C@H](CC1CCCCC1)C(=O)NCCc1ccc(cc1)OC2 | 227 | – | – | –
13 | CCOc1cccc2c1OCC(=O)N[C@H]1CC[C@H](CC1)CC(=O)N[C@@H](C(C)C)C(=O)N[C@H](Cc1ccccc1)C(=O)N[C@H](C(=O)NC)Cc1ccc(cc1)OC2 | 298 | – | – | –
14 | CCOc1cc(Oc2cc(C)c(Cl)c(C)c2)cc2c1OCC(=O)N[C@H]1CC[C@H](CC1)CC(=O)N[C@@H](c1ccccc1)C(=O)N[C@H](Cc1ccccc1)C(=O)NCCc1ccc(cc1)NC2 | 5300 | – | < 2 | 57
15 | CCOc1cc(-c2ccc(F)c(C)c2)cc2c1OCC(=O)N[C@H]1CC[C@H](CC1)CC(=O)N[C@@H](c1ccccc1)C(=O)N[C@H](Cc1ccccc1)C(=O)NCCc1ccc(cc1)OC2 | 54000 | 2900 | – | –
16 | CCOc1cccc2c1OCC(=O)N[C@H]1CC[C@H](CC1)CC(=O)N(c1ccccc1)CC(=O)N(Cc1ccccc1)CC(=O)NCCc1ccc(cc1)OC2 | > 30000 | – | – | –
17 | COc1cccc2c1OCC(=O)N[C@H]1CC[C@H](CC1)CC(=O)N[C@@H](c1ccccc1)C(=O)N[C@H](Cc1ccccc1)C(=O)NCCc1ccc(cc1)OC2 | 174 | – | – | –
18 | CCOc1cccc2c1OC(C)(C)C(=O)N[C@H]1CC[C@H](CC1)CC(=O)N[C@@H](c1ccccc1)C(=O)N[C@H](CC1CCCCC1)C(=O)NCCc1ccc(cc1)OC2 | 124 | – | – | –
19 | CCOc1cccc2c1OCC(=O)N[C@H]1CC[C@H](CC1)CC(=O)N[C@@H](c1ccccc1)C(=O)N[C@H](CC1CCCCC1)C(=O)N[C@H](C(=O)NC)Cc1ccc(cc1)OC2 | 64 | – | – | –
20 | CCOc1cccc2c1OCC(=O)N[C@H]1CC[C@H](CC1)CC(=O)N[C@@H]([C@@H](C)OC)C(=O)N[C@H](Cc1ccccc1)C(=O)NCCc1ccc(cc1)OC2 | 678 | – | 25 (≈ 18.2 µg/mL) | –
21 | CCOc1cccc2c1OCC(=O)N[C@H]1CC[C@H](CC1)CC(=O)N[C@@](C)(c1ccccc1)C(=O)N[C@H](Cc1ccccc1)C(=O)NCCc1ccc(cc1)OC2 | 1430 | – | 4 (≈ 3.04 µg/mL) | –
22 | CCOc1cccc2c1OCC(=O)N[C@H]1CC[C@H](CC1)CC(=O)N[C@@H](C1CCCCC1)C(=O)N[C@H](CC1CCCCC1)C(=O)N[C@H](C(=O)NC)Cc1ccc(cc1)OC2 | 179 | – | – | –
23 | CCOc1cccc2c1OCC(=O)N[C@H]1CC[C@H](CC1)CC(=O)N[C@H](c1ccccc1)C(=O)N[C@H](Cc1ccccc1)C(=O)NCCc1ccc(cc1)OC2 | 7100 | – | – | –

Row | SMILES | IC50 [1] [nM] | IC50 [2] [nM] | solubility kinetic at 24 h [3] [µM] | IC50 [4] [nM]
24 | CCOc1cc(C#Cc2ccc(C(C)(C)C)cc2)cc2c1OCC(=O)N[C@H]1CC[C@H](CC1)CC(=O)N[C@@H](c1ccccc1)C(=O)N[C@H](Cc1ccccc1)C(=O)NCCc1ccc(cc1)OC2 | 1800 | 9900 | – | –
25 | CCOc1cccc2c1OC(C)(C)C(=O)N[C@H]1CC[C@H](CC1)CC(=O)N[C@@H](C(C)C)C(=O)N[C@H](Cc1ccccc1)C(=O)NCCc1ccc(cc1)OC2 | 137 | – | – | –
26 | CCOc1cccc2c1OCC(=O)N[C@H]1CC[C@H](CC1)CC(=O)N(c1ccccc1)CC(=O)N[C@H](Cc1ccccc1)C(=O)NCCc1ccc(cc1)OC2 | > 30000 | – | – | –
27 | CCOc1cc(C#Cc2cc(C)cc(C)c2)cc2c1OCC(=O)N[C@H]1CC[C@H](CC1)CC(=O)N[C@@H](c1ccccc1)C(=O)N[C@H](Cc1ccccc1)C(=O)NCCc1ccc(cc1)OC2 | 14000 | 3400 | – | –
28 | CCOc1cc(-c2ccc(F)c(OC)c2)cc2c1OCC(=O)N[C@H]1CC[C@H](CC1)CC(=O)N[C@@H](c1ccccc1)C(=O)N[C@H](Cc1ccccc1)C(=O)NCCc1ccc(cc1)OC2 | 50000 | 2100 | – | –
29 | CCOc1cccc2c1OCC(=O)N[C@H]1CC[C@H](CC1)CC(=O)N[C@@H](c1ccccc1)C(=O)N(C)[C@H](Cc1ccccc1)C(=O)NCCc1ccc(cc1)OC2 | 382 | – | – | –
30 | CCOc1cccc2c1OCC(=O)N[C@H]1CC[C@H](CC1)CC(=O)N[C@@H](CC(C)C)C(=O)N[C@H](Cc1ccccc1)C(=O)NCCc1ccc(cc1)OC2 | 90 | – | – | –
31 | CCOc1cccc2c1OCC(=O)N[C@H]1CC[C@H](CC1)CC(=O)N[C@@H](c1cccnc1)C(=O)N[C@H](Cc1ccccc1)C(=O)NCCc1ccc(cc1)OC2 | 43 | – | 6 (≈ 4.49 µg/mL) | –
32 | CCOc1cccc2c1OCC(=O)N[C@H]1CC[C@H](CC1)CC(=O)N[C@@H](CC1CCCCC1)C(=O)N[C@H](CC1CCCCC1)C(=O)N[C@H](C(=O)NC)Cc1ccc(cc1)OC2 | 271 | – | – | –
33 | CCOc1cc(Oc2cccc(C(F)(F)F)c2)cc2c1OCC(=O)N[C@H]1CC[C@H](CC1)CC(=O)N[C@@H](c1ccccc1)C(=O)N[C@H](Cc1ccccc1)C(=O)NCCc1ccc(cc1)OC2 | 12000 | 180 | – | –
34 | CCOc1cc(-c2cc(C)cc(C)c2)cc2c1OCC(=O)N[C@H]1CC[C@H](CC1)CC(=O)N[C@@H](c1ccccc1)C(=O)N[C@H](Cc1ccccc1)C(=O)NCCc1ccc(cc1)OC2 | 15000 | > 10000 | – | –
35 | CCOc1cccc2c1OCC(=O)N[C@H]1CC[C@H](CC1)CC(=O)N[C@@H](CC1CCCCC1)C(=O)N[C@H](Cc1ccccc1)C(=O)N[C@H](C(=O)NC)Cc1ccc(cc1)OC2 | 101 | – | – | –
36 | CCOc1cc(Oc2cc(C)c(Cl)c(C)c2)cc2c1OCC(=O)N[C@H]1CC[C@H](CC1)CC(=O)N[C@@H]([C@@H](C)OC)C(=O)N[C@H](Cc1ccncc1)C(=O)NCCc1ccc(cc1)OC2 | 9400 | – | < 2 | 1400
37 | CCOc1cc(Oc2cccc(Cl)c2)cc2c1OCC(=O)N[C@H]1CC[C@H](CC1)CC(=O)N[C@@H](c1ccccc1)C(=O)N[C@H](Cc1ccccc1)C(=O)NCCc1ccc(cc1)OC2 | 22000 | 330 | – | –
38 | CCOc1cccc2c1OCC(=O)N[C@H]1CC[C@H](CC1)CC(=O)N[C@@H](Cc1c[nH]c3ccccc13)C(=O)N[C@H](Cc1ccccc1)C(=O)NCCc1ccc(cc1)OC2 | 1440 | – | 1 (≈ 0.8 µg/mL) | –
39 | CCOc1cc(C#Cc2cccc(F)c2)cc2c1OCC(=O)N[C@H]1CC[C@H](CC1)CC(=O)N[C@@H](c1ccccc1)C(=O)N[C@H](Cc1ccccc1)C(=O)NCCc1ccc(cc1)OC2 | 7300 | 2200 | – | –
40 | CCOc1cccc2c1OCC(=O)N[C@H]1CC[C@H](CC1)CC(=O)N[C@@H](CCS(C)(=O)=O)C(=O)N[C@H](Cc1ccccc1)C(=O)NCCc1ccc(cc1)OC2 | 80 | – | 5 (≈ 3.88 µg/mL) | –
41 | CCOc1cc(Oc2cc(C)cc(C)c2)cc2c1OCC(=O)N[C@H]1CC[C@H](CC1)CC(=O)N[C@@H](c1ccccc1)C(=O)N[C@H](Cc1ccccc1)C(=O)NCCc1ccc(cc1)NC2 | 9100 | – | < 2 | 94
42 | CCOc1cccc2c1OCC(=O)N[C@H]1CC[C@H](CC1)CC(=O)N[C@@H](c1ccccc1)C(=O)N[C@H](Cc1ccccc1)C(=O)N(C)CCc1ccc(cc1)OC2 (mixture of isomers) | 21800 | – | – | –
43 | CCOc1cccc2c1OCC(=O)N[C@H]1CC[C@H](CC1)CC(=O)N[C@@H](Cc1c[nH]cn1)C(=O)N[C@H](Cc1ccccc1)C(=O)NCCc1ccc(cc1)OC2 | 7350 | – | 69 (≈ 51.8 µg/mL) | –
44 | CCOc1cccc2c1OCC(=O)N[C@H]1CC[C@H](CC1)CC(=O)N[C@@H](Cc1ccc(O)cc1)C(=O)N[C@H](Cc1ccccc1)C(=O)NCCc1ccc(cc1)OC2 | 1370 | – | 37 (≈ 28.7 µg/mL) | –
45 | CCOc1cc(Oc2cc(C)c(Cl)c(C)c2)cc2c1OCC(=O)N[C@H]1CC[C@H](CC1)CC(=O)N[C@@H](CCS(C)(=O)=O)C(=O)N[C@H](Cc1ccncc1)C(=O)NCCc1ccc(cc1)OC2 | 5300 | – | < 2 | > 10000
46 | CCOc1cc(C#Cc2ccc(OC)cc2)cc2c1OCC(=O)N[C@H]1CC[C@H](CC1)CC(=O)N[C@@H](c1ccccc1)C(=O)N[C@H](Cc1ccccc1)C(=O)NCCc1ccc(cc1)OC2 | 8000 | 1400 | – | –
